Values quoted from earlier work as cited in patent US20200093949A1, “COMBINED ODOR ABSORPTION AND INSECT REPELLENT COMPOSITIONS, TREATMENTS, AND METHODS OF USE” (priority 2014, published 2020).

Tested on: yellow fever mosquito
Conditions: compared with DEET

In the case of `CCC(C)OC(=O)N1CCCCC1CCO` (stereo not shown) [Picaridin, 2-(2-hydroxyethyl)-1-piperidine carboxylic acid 1-methylpropyl ester], the “time of protection of guinea pigs from bites, post application” value is listed as “longer times”.
